# Laboratory results published in ChEMBL document CHEMBL4382199, “Application of Virtual Screening to the Identification of New LpxC Inhibitor Chemotypes, Oxazolidinone and Isoxazoline” (J Med Chem, 2018).
# Activity calls are given as the source filed them. The rule behind the calls is not given here.
# What was measured:
# Escherichia coli = experiment: Antimicrobial activity against Escherichia coli ATCC 25922 after 20 hrs by CLSI protocol-based microdilution assay; type: functional; conditions: ATCC 25922, 20 h
# Pseudomonas aeruginosa [1] = experiment: Antimicrobial activity against Pseudomonas aeruginosa ATCC 27853 after 20 hrs by CLSI protocol-based microdilution assay; type: functional; conditions: ATCC 27853, 20 h
# Klebsiella pneumoniae [2] = experiment: Antimicrobial activity against Klebsiella pneumoniae ATCC 43816 after 20 hrs by CLSI protocol-based microdilution assay; type: functional; conditions: ATCC 43816, 20 h
# [3] = Lipophilicity, log D of the compound at pH 7.4; type: physicochemical; conditions: buffer
# [4] = molecular target: T1, UDP-3-O-acyl-N-acetylglucosamine deacetylase (Pseudomonas aeruginosa (strain ATCC 15692 / PAO1 / 1C / PRS 101 / LMG12228), UniProt P47205); experiment: Binding affinity to Pseudomonas aeruginosa PAO1 NB52019 LpxC after 60 to 420 secs by SPR method
# T1 sequence (P47205 whole entry): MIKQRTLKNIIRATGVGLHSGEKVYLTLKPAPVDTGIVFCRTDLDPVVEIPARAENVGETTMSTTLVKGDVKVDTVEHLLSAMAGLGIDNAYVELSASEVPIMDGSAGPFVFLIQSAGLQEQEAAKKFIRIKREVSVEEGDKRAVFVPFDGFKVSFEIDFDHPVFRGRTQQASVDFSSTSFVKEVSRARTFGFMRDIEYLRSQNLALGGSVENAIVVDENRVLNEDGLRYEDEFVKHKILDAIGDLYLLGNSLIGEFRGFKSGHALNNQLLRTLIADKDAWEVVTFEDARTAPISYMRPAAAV
# Klebsiella pneumoniae [5] = experiment: Inhibition of LpxC in Klebsiella pneumoniae ATCC 43816 assessed as antibacterial activity after 20 hrs in presence of rifampicin by CLSI protocol-based microdilution assay
# Klebsiella pneumoniae [6] = experiment: Inhibition of LpxC in Klebsiella pneumoniae ATCC 43816 assessed as potentiation factor by measuring ratio of MIC of compound alone to MIC of compound in presence of vancomycin after 20 hrs by CLSI protocol-based microdilution assay
# Klebsiella pneumoniae [7] = experiment: Inhibition of LpxC in Klebsiella pneumoniae ATCC 43816 assessed as antibacterial activity after 20 hrs in presence of vancomycin by CLSI protocol-based microdilution assay
# Klebsiella pneumoniae [8] = experiment: Inhibition of LpxC in Klebsiella pneumoniae ATCC 43816 assessed as potentiation factor by measuring ratio of MIC of compound alone to MIC of compound in presence of rifampicin after 20 hrs by CLSI protocol-based microdilution assay
# Klebsiella pneumoniae [9] = experiment: Antibacterial activity against Klebsiella pneumoniae infected in mouse model of lung infection assessed as reduction in bacterial load in lung at 200 mg/kg, sc dosed every 6 hrs and measured after 48 hrs post first treatment; type: functional, organism-based
# Klebsiella pneumoniae [10] = experiment: Antibacterial activity against Klebsiella pneumoniae infected in lung infection mouse model assessed as log reduction in bacterial load in lungs at 200 mg/kg, sc dosed every 6 hrs measured after 48 hrs post first treatment; type: functional, organism-based
# [11] = Volume of distribution at steady state in dog at 10 mg/kg, iv; type: ADME, organism-based, Canis lupus familiaris; conditions: in vivo, read-out: Vdss
# [12] = Volume of distribution at steady state in rat at 5 mg/kg, iv; type: ADME, organism-based; conditions: in vivo, read-out: Vdss
# [13] = Solubility of the compound at pH 7.4; type: physicochemical; conditions: buffer
# Klebsiella pneumoniae [14] = experiment: Antibacterial activity against Klebsiella pneumoniae infected in mouse model of lung infection assessed as reduction in bacterial load in lung at 20 mg/kg, sc dosed every 6 hrs and measured after 48 hrs post first treatment; type: functional
# [15] = Protein binding in rat plasma; type: ADME, cell-free; conditions: read-out: PPB (converted)
# [16] = Half life in rat at 5 mg/kg, iv; type: ADME, organism-based; conditions: in vivo
# [17] = Half life in mouse at 60 mg/kg, iv; type: ADME, organism-based; conditions: in vivo
# [18] = Protein binding in human plasma; type: ADME, cell-free; conditions: read-out: PPB (converted)
# [19] = Solubility of the compound at pH 9; type: physicochemical; conditions: buffer
# [20] = Protein binding in dog plasma; type: ADME, cell-free, Canis lupus familiaris; conditions: read-out: PPB (converted)
# [21] = Clearance in rat at 5 mg/kg, iv; type: ADME, organism-based; conditions: in vivo
# [22] = Protein binding in mouse plasma; type: ADME, cell-free; conditions: read-out: PPB (converted)
# [23] = Clearance in mouse at 60 mg/kg, iv; type: ADME, organism-based; conditions: in vivo
# [24] = Half life in dog at 10 mg/kg, iv; type: ADME, organism-based, Canis lupus familiaris; conditions: in vivo
# Pseudomonas aeruginosa [25] = experiment: Antimicrobial activity against Pseudomonas aeruginosa infected in mouse model of neutropenic thigh infection assessed reduction in bacterial levels in thigh at 160 mg/kg/day, sc administered 2 hrs post infection every 6 hrs for 24 hrs; type: functional, organism-based
# Pseudomonas aeruginosa [26] = experiment: Antimicrobial activity against Pseudomonas aeruginosa infected in mouse model of neutropenic thigh infection assessed reduction in bacterial levels in thigh at 105 mg/kg/day, sc administered 2 hrs post infection every 6 hrs for 24 hrs; type: functional, organism-based
# [27] = Clearance in dog at 10 mg/kg, iv; type: ADME, organism-based, Canis lupus familiaris; conditions: in vivo
# [28] = Volume of distribution at steady state in mouse at 60 mg/kg, iv; type: ADME, organism-based; conditions: in vivo, read-out: Vdss
# Klebsiella pneumoniae [29] = experiment: Antibacterial activity against Klebsiella pneumoniae infected in mouse model of lung infection assessed as reduction in bacterial load in lung at 20 mg/kg, sc dosed every 6 hrs co-treated with 200 mg/kg vancomycin and measured after 48 hrs post first treatment (reference value: 4.5 log10CFU/g); type: functional
SMILES,MIC (Escherichia coli),MIC (Pseudomonas aeruginosa [1]),MIC (Klebsiella pneumoniae [2]),logD [3],Kd [4],MIC (Klebsiella pneumoniae [5]),MIC (Klebsiella pneumoniae [7]),further results
C[C@@](C[C@H]1CN(c2ccc(-c3ccccc3)cn2)C(=O)O1)(C(=O)NO)S(C)(=O)=O,2 µg/mL,2 µg/mL,32 µg/mL,1.8,120 pM,–,–,–
C/C=C/c1ccc(C2=NO[C@@H](C[C@](C)(C(=O)NO)S(C)(=O)=O)C2)cc1,2 µg/mL,1 µg/mL,16 µg/mL,2,300 pM,–,–,–
C[C@@](C[C@H]1CC(c2ccc(C#CC3CC3)cc2)=NO1)(C(=O)NO)S(C)(=O)=O,0.125 µg/mL,1 µg/mL,0.5 µg/mL,2.2,170 pM,0.03 µg/mL,0.125 µg/mL,fold change (FC) (Klebsiella pneumoniae [6]): 4; fold change (FC) (Klebsiella pneumoniae [8]): 16
CN[C@H](CC(C)C)C(=O)N[C@H]1C(=O)N[C@@H](CC(N)=O)C(=O)N[C@H]2C(=O)N[C@H]3C(=O)N[C@H](C(=O)N[C@H](C(=O)O)c4cc(O)cc(O)c4-c4cc3ccc4O)[C@H](O)c3ccc(c(Cl)c3)Oc3cc2cc(c3O[C@@H]2O[C@H](CO)[C@@H](O)[C@H](O)[C@H]2O[C@H]2C[C@](C)(N)[C@H](O)[C@H](C)O2)Oc2ccc(cc2Cl)[C@H]1O [VANCOMYCIN],–,–,> 128 µg/mL,–,–,–,–,Activity (Klebsiella pneumoniae [9]): inactive; Activity (Klebsiella pneumoniae [10]): inactive
C[C@@H](O)[C@H](NC(=O)c1ccc(C#Cc2ccc(CN3CCOCC3)cc2)cc1)C(=O)NO,0.125 µg/mL,2 µg/mL,0.5 µg/mL,–,–,–,–,–
CC#Cc1ccc(C2=NO[C@@H](C[C@](C)(C(=O)NO)S(C)(=O)=O)C2)cc1,1 µg/mL,0.5 µg/mL,8 µg/mL,1.4,440 pM,0.25 µg/mL,2 µg/mL,fold change (FC) (Klebsiella pneumoniae [6]): 4; fold change (FC) (Klebsiella pneumoniae [8]): 32
C[C@@](C[C@H]1CN(c2ccc(Br)cc2)C(=O)O1)(C(=O)NO)S(C)(=O)=O,> 64 µg/mL,0.5 µg/mL,> 64 µg/mL,1,210 pM,–,–,–
C[C@@](C[C@H]1CN(c2ccc(-c3ccccc3)cc2)C(=O)O1)(C(=O)NO)S(C)(=O)=O,0.25 µg/mL,1 µg/mL,4 µg/mL,2.3,26 pM,–,–,–
CCCc1ccc(N2C[C@H](C[C@](C)(C(=O)NO)S(C)(=O)=O)OC2=O)cc1,4 µg/mL,0.5 µg/mL,32 µg/mL,1.6,170 pM,1 µg/mL,8 µg/mL,fold change (FC) (Klebsiella pneumoniae [6]): 4; fold change (FC) (Klebsiella pneumoniae [8]): 32
C[C@@](C[C@H]1CC(c2ccc(Br)cc2)=NO1)(C(=O)NO)S(C)(=O)=O,32 µg/mL,4 µg/mL,> 64 µg/mL,1.2,2600 pM,–,–,–
C[C@@](C[C@H]1CN(c2ccc(C3CC3)cc2)C(=O)O1)(C(=O)NO)S(C)(=O)=O,32 µg/mL,2 µg/mL,> 64 µg/mL,1.5,120 pM,–,–,–
C[C@@H](O)Cc1ccc(-c2ccc(N3C[C@H](C[C@](C)(C(=O)NO)S(C)(=O)=O)OC3=O)cc2)cc1,0.25 µg/mL,2 µg/mL,1 µg/mL,1.2,120 pM,–,–,–
CO[C@H]1/C=C/O[C@@]2(C)Oc3c(C)c(O)c4c(O)c(c(/C=N/N5CCN(C)CC5)c(O)c4c3C2=O)NC(=O)/C(C)=C\C=C\[C@H](C)[C@H](O)[C@@H](C)[C@@H](O)[C@@H](C)[C@H](OC(C)=O)[C@@H]1C [RIFAMPIN],–,–,32 µg/mL,–,–,–,–,–
CC#Cc1ccc(N2C[C@H](C[C@](C)(C(=O)NO)S(C)(=O)=O)OC2=O)cc1,2 µg/mL,0.5 µg/mL,16 µg/mL,1.4,63 pM,0.25 µg/mL,4 µg/mL,fold change (FC) (Klebsiella pneumoniae [6]): 4; fold change (FC) (Klebsiella pneumoniae [8]): 64
CC(C)(O)[C@H]1C[C@H](C#Cc2ccc(N3C[C@H](C[C@](C)(C(=O)NO)S(C)(=O)=O)OC3=O)cc2)C1,0.5 µg/mL,1 µg/mL,1 µg/mL,1.6,200 pM,0.5 µg/mL,1 µg/mL,fold change (FC) (Klebsiella pneumoniae [6]): 1; fold change (FC) (Klebsiella pneumoniae [8]): 2
CCCc1ccc(C2=NO[C@@H](C[C@](C)(C(=O)NO)S(C)(=O)=O)C2)cc1,4 µg/mL,1 µg/mL,16 µg/mL,1.7,200 pM,–,–,–
C/C=C/c1ccc(N2C[C@H](C[C@](C)(C(=O)NO)S(C)(=O)=O)OC2=O)cc1,4 µg/mL,1 µg/mL,32 µg/mL,1.4,100 pM,–,–,–
C[C@@](C[C@H]1CN(c2ccc(C#CC3CC3)cc2)C(=O)O1)(C(=O)NO)S(C)(=O)=O,0.125 µg/mL,0.5 µg/mL,1 µg/mL,1.9,–,0.06 µg/mL,0.25 µg/mL,Vd [11]: 0.8 L/kg; Vd [12]: 1 L/kg; solubility [13]: 126 µg/mL; Activity (Klebsiella pneumoniae [14]): 4.5 log10CFU/g; fraction unbound [15]: 0.11; half-life [16]: 54 min; half-life [17]: 330 min; fraction unbound [18]: 0.14; solubility [19]: > 20000 µg/mL; fraction unbound [20]: 0.14; clearance [21]: 24 mL/min/kg; fraction unbound [22]: 0.13; clearance [23]: 49 mL/min/kg; half-life [24]: 42 min; Activity (Pseudomonas aeruginosa [25]): Active; Activity (Pseudomonas aeruginosa [26]): Active; clearance [27]: 26 mL/min/kg; Vd [28]: 1.6 L/kg; Activity (Klebsiella pneumoniae [29]): 2.5 log10CFU/g
